BigSolDB 2.1

Nc1ccc(Oc2ccc(N)cc2)cc1
solubility (mole fraction) (in DMAc, 293.15 K): 0.14 | solubility (mole fraction) (in DMAc, 298.15 K): 0.144 | solubility (mole fraction) (in DMAc, 303.15 K): 0.148 | solubility (mole fraction) (in DMAc, 308.15 K): 0.152 | solubility (mole fraction) (in DMAc, 313.15 K): 0.157 | solubility (mole fraction) (in DMAc, 318.15 K): 0.164 | solubility (mole fraction) (in DMAc, 323.15 K): 0.166 | solubility (mole fraction) (in DMAc, 328.15 K): 0.177 | solubility (mole fraction) (in DMAc, 333.15 K): 0.184 | solubility (mole fraction) (in DMF, 293.15 K): 0.113 | solubility (mole fraction) (in DMF, 298.15 K): 0.117 | solubility (mole fraction) (in DMF, 303.15 K): 0.12 | solubility (mole fraction) (in DMF, 308.15 K): 0.126 | solubility (mole fraction) (in DMF, 313.15 K): 0.132 | solubility (mole fraction) (in DMF, 318.15 K): 0.139 | solubility (mole fraction) (in DMF, 323.15 K): 0.146 | solubility (mole fraction) (in DMF, 328.15 K): 0.152 | solubility (mole fraction) (in DMF, 333.15 K): 0.161 | solubility (mole fraction) (in DMSO, 293.15 K): 0.149 | solubility (mole fraction) (in DMSO, 298.15 K): 0.153 | solubility (mole fraction) (in DMSO, 303.15 K): 0.159 | solubility (mole fraction) (in DMSO, 308.15 K): 0.165 | solubility (mole fraction) (in DMSO, 313.15 K): 0.171 | solubility (mole fraction) (in DMSO, 318.15 K): 0.181 | solubility (mole fraction) (in DMSO, 323.15 K): 0.185 | solubility (mole fraction) (in DMSO, 328.15 K): 0.192 | solubility (mole fraction) (in DMSO, 333.15 K): 0.201
